Reference: patent publication US20250268897A1, “USE OF HETEROCYCLIC COMPOUND IN TREATING DISEASES RELATED TO KINASE DRUG-RESISTANT MUTATION AND METHOD THEREFOR” (Sichuan Kelun-Biotech Biopharmaceutical Co., Ltd., priority 2021, published 2025)

Columns and labels:
RET-G810R enzyme = RET-G810R enzyme (Homo sapiens (Human), UniProt P07949, G810R); assay: RET inhibition experiment, HTRF KinEASE-TK kit, RET-G810R; format: biochemical; conditions: for IC50: Table 2
RET-G810S enzyme = RET-G810S enzyme (Homo sapiens (Human), UniProt P07949, G810S); assay: RET inhibition experiment, HTRF KinEASE-TK kit, RET-G810S; format: biochemical; conditions: for Inhibition rate on RET-G810S (%) / inhibition at 0.3 µM: compound concentration 300 nM; for inhibition at 0.3 µM: read-out: Inhibition rate on RET-G810S (%); for IC50: Table 4
RET-G810C enzyme = RET-G810C enzyme (Homo sapiens (Human), UniProt P07949, G810C); assay: RET inhibition experiment, HTRF KinEASE-TK kit, RET-G810C; format: biochemical; conditions: for IC50: Table 6
[1] = test system: Ba/F3 KIF5B-RET^G810R subcutaneous tumour; assay: In vivo efficacy in BALB/c Nude mouse model with Ba/F3 KIF5B-RET^G810R subcutaneous tumour; conditions: 30 mg/kg, PO, BID × 12; for VP-1 (mm^3, mean ± SEM): tumour volume one day before administration: baseline of the group

RET-G810S enzyme, sequence (P07949 29-1114 G810S): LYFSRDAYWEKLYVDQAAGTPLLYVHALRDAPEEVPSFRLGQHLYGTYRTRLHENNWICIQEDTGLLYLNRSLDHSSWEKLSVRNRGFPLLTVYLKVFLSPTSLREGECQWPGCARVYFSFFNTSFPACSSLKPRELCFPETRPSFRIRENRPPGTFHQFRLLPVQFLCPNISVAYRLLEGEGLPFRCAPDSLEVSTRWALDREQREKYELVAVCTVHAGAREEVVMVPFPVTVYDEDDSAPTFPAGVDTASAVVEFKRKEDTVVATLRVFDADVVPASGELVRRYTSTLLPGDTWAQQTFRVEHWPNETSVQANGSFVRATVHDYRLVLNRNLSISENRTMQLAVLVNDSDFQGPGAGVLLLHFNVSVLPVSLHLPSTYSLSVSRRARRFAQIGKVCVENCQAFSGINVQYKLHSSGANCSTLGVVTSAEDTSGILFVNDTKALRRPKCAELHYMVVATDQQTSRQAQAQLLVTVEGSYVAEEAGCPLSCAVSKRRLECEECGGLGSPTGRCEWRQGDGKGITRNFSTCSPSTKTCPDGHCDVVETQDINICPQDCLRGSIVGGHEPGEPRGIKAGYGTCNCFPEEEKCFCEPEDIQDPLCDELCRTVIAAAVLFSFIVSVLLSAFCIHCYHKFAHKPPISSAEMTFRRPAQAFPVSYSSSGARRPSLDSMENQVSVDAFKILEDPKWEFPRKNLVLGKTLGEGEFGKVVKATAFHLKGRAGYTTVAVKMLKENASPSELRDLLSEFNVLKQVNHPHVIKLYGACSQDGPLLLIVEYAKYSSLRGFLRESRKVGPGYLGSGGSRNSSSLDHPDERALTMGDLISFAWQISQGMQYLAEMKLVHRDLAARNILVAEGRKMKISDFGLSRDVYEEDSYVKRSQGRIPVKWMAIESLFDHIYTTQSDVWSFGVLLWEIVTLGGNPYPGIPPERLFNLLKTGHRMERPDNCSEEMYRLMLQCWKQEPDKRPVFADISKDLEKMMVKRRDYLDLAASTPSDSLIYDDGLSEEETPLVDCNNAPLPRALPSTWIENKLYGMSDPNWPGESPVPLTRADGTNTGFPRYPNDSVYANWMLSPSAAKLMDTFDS
RET-G810C enzyme, sequence (P07949 29-1114 G810C): as the sequence (P07949 29-1114 G810S) above, with S782C counted along it
RET-G810R enzyme, sequence (P07949 29-1114 G810R): as the sequence (P07949 29-1114 G810S) above, with S782R counted along it

SMILES: Cc1cc(Nc2cc(C)[nH]n2)nc(-c2ccc(N3CC4CC(C3)N4Cc3ccc(-n4cc(C)c(C)n4)nc3)nc2)n1 [Compound 12]
- Inhibition rate on RET-G810R (%) (RET-G810R enzyme; compound concentration 300 nM): 69.44 ± 0.31%
- Inhibition rate on RET-G810S (%) (RET-G810S enzyme): 99.19 ± 0.55%
- Inhibition rate on RET-G810C (%) (RET-G810C enzyme; compound concentration 300 nM): 69.10 ± 5.56%

SMILES: Cc1cc(Nc2cc(C)[nH]n2)nc(-c2ccc(N3CC4CC(C3)N4Cc3ccc(-n4cnc(F)c4)nc3)nc2)n1 [Compound 10]
- Inhibition rate on RET-G810R (%) (RET-G810R enzyme; compound concentration 300 nM): 72.78 ± 1.58%
- Inhibition rate on RET-G810S (%) (RET-G810S enzyme): 88.46 ± 2.23%

SMILES: Cc1cnn(-c2ccc(CN3C4CC3CN(c3ccc(-c5nc(C)cc(Nc6cc(C)[nH]n6)n5)cn3)C4)cn2)c1 [Compound 4]
- Inhibition rate on RET-G810R (%) (RET-G810R enzyme; compound concentration 300 nM): 78.98 ± 0.24%
- Inhibition rate on RET-G810S (%) (RET-G810S enzyme): 98.89 ± 0.18%

SMILES: Cc1cc(Nc2cc(C)[nH]n2)nc(-c2ccc(N3CC4CC(C3)N4Cc3ccc(Cl)cn3)nc2)n1 [Compound 3]
- Inhibition rate on RET-G810R (%) (RET-G810R enzyme; compound concentration 300 nM): 72.49 ± 3.15%

SMILES: Cc1cc(Nc2cc(C)[nH]n2)nc(-c2ccc(N3CC4CC(C3)N4Cc3ccc(-n4cc(Cl)cn4)nc3)nc2)n1 [Compound 9, 2-(6-(6-((6-(4-chloro-1H-pyrazol-1-yl)pyridin-3-yl)methyl)-3,6-diazabicyclo [3.1.1]heptan-3-yl)pyridin-3-yl)-6-methyl-N-(5-methyl-1H-pyrazol-3-yl) pyrimidin-4-amine]
- inhibition at 0.3 µM (RET-G810R enzyme; compound concentration 300 nM, read-out: Inhibition rate on RET-G810R (%)): 78.6 ± 4.5%
- inhibition at 0.3 µM (RET-G810S enzyme): 97.64 ± 0.19%

SMILES: Cc1cc(Nc2cc(C)[nH]n2)nc(-c2ccc(N3CC4CC(C3)N4Cc3ccc(-n4ncc(F)c4C)nc3)nc2)n1 [Compound 20]
- Inhibition rate on RET-G810S (%) (RET-G810S enzyme): 96.67 ± 0.03%
- Inhibition rate on RET-G810C (%) (RET-G810C enzyme; compound concentration 300 nM): 86.86 ± 1.73%

SMILES: CO[C@]1(C(=O)N[C@@H](C)c2ccc(-n3cc(F)cn3)nc2)CC[C@H](c2nc(C)cc(Nc3cc(C)[nH]n3)n2)CC1 [BLU-667, Pralsetinib]
- TGI (%) tumour growth inhibition rate [1]: 29.78%
- VP12 (mm^3, mean ± SEM): tumour volume on Day 12 of administration [1]: 552.89 ± 29.7 mm^3
- VP-1 (mm^3, mean ± SEM): tumour volume one day before administration [1]: 101.82 ± 5.93 mm^3

SMILES: Cc1cc(Nc2cc(C)[nH]n2)nc(-c2ccc(N3CC4CC(C3)N4Cc3ccc(-n4cccn4)nc3)nc2)n1 [Compound 5]
- IC50 (RET-G810R enzyme): 185 nM
- Inhibition rate on RET-G810S (%) (RET-G810S enzyme): 97.89 ± 0.57%

SMILES: Cc1cc(Nc2cc(C)[nH]n2)nc(-c2ccc(N3CC4CC(C3)N4Cc3ccc(-n4nccc4C4CC4)nc3)nc2)n1 [Compound 11]
- Inhibition rate on RET-G810S (%) (RET-G810S enzyme): 90.87 ± 1.13%

SMILES: Cc1cc(Nc2cc(C)[nH]n2)nc(-c2ccc(N3CC4CC(C3)N4Cc3ccc(-n4cc(F)cn4)cc3)nc2)n1 [Compound 7]
- Inhibition rate on RET-G810S (%) (RET-G810S enzyme): 91.80 ± 0.98%

SMILES: Cc1cc(Nc2cc(C)[nH]n2)nc(-c2ccc(N3CC4CC(C3)N4Cc3cnc(-n4cc(F)cn4)cn3)nc2)n1 [Compound 31, 2-(6-(6-((5-(4-fluoro-1H-pyrazol-1-yl)pyrazin-2-yl)methyl)-3,6-diazabicyclo [3.1.1]hept-3-yl)pyridin-3-yl)-6-methyl-N-(5-methyl-1H-pyrazol-3-yl) pyrimidin-4-amine]
- inhibition at 0.3 µM (RET-G810S enzyme): 99.69 ± 0.14%
- inhibition at 0.3 µM (RET-G810C enzyme; compound concentration 300 nM, read-out: Inhibition rate on RET-G810C (%)): 74.1 ± 1.28%

SMILES: Cc1cc(Nc2cc(C)[nH]n2)nc(-c2ccc(N3CC4CC(C3)N4Cc3ccc(-n4ccc(F)n4)nc3)nc2)n1 [Compound 8]
- Inhibition rate on RET-G810S (%) (RET-G810S enzyme): 83.73 ± 3.16%

SMILES: Cc1cc(Nc2cc(C)[nH]n2)nc(-c2ccc(N3CC4CC(C3)N4Cc3ccc(-c4cscn4)nc3)nc2)n1 [Compound 26]
- Inhibition rate on RET-G810S (%) (RET-G810S enzyme): 97.83 ± 0.32%

SMILES: Cc1cc(Nc2cc(C)[nH]n2)nc(-c2ccc(N3CC4CC(C3)N4Cc3ccc(-c4ccc[nH]4)nc3)nc2)n1 [Compound 21]
- IC50 (RET-G810S enzyme): 6.61 nM
- IC50 (RET-G810C enzyme): 173 nM

SMILES: Cc1cc(Nc2cc(C)[nH]n2)nc(-c2ccc(N3CC4CC(C3)N4Cc3ccc(-n4ccc(C(C)(C)O)n4)nc3)nc2)n1 [Compound 24, 2-(1-(5-((3-(5-(4-methyl-6-((5-methyl-1H-pyrazol-3-yl)amino)pyrimidin-2-yl)pyridin-2-yl)-3,6-diazabicyclo [3.1.1]heptan-6-yl)methyl)pyridin-2-yl)-1H-pyrazol-3-yl) propan-2-ol]
- IC50 (RET-G810S enzyme): 57.2 nM

SMILES: COc1ccc(CN2C3CC2CN(c2ccc(-c4cc(OCC(C)(C)O)cn5ncc(C#N)c45)cn2)C3)cn1 [LOXO-292, Selpercatinib]
- TGI (%) tumour growth inhibition rate [1]: 2.69%
- VP12 (mm^3, mean ± SEM): tumour volume on Day 12 of administration [1]: 725.55 ± 54.84 mm^3
- VP-1 (mm^3, mean ± SEM): tumour volume one day before administration [1]: 100.47 ± 4.52 mm^3

SMILES: Cc1cc(Nc2cc(C)[nH]n2)nc(-c2ccc(N3CC4CC(C3)N4Cc3ccc(-n4cc(F)cn4)nc3)nc2)c1 [Compound 13]
- Inhibition rate on RET-G810S (%) (RET-G810S enzyme): 97.21 ± 1.01%

SMILES: Cc1cc(Nc2cc(C)[nH]n2)nc(-c2ccc(N3CC4CC(C3)N4Cc3ccc(-n4nccc4C4CC4)cc3)nc2)n1 [Compound 14, 2-(6-(6-(4-(5-cyclopropyl-1H-pyrazol-1-yl)benzyl)-3,6-diazabicyclo [3.1.1]heptan-3-yl)pyridin-3-yl)-6-methyl-N-(5-methyl-1H-pyrazol-3-yl) pyrimidin-4-amine]
- inhibition at 0.3 µM (RET-G810S enzyme): 92.56 ± 0.08%

SMILES: Cc1cc(Nc2cc(C)[nH]n2)nc(-c2ccc(N3CC4CC(C3)N4Cc3ccc(-c4ccc(F)[nH]4)nc3)nc2)n1 [Compound 27]
- IC50 (RET-G810S enzyme): 23.1 nM
- Inhibition rate on RET-G810C (%) (RET-G810C enzyme; compound concentration 300 nM): 82.66 ± 2.47%

SMILES: Cc1cc(Nc2cc(C)[nH]n2)nc(-c2ccc(N3CC4CC(C3)N4Cc3ccc(-n4cc(F)c(C(C)(C)O)n4)nc3)nc2)n1.O=C(O)/C=C/C(=O)O [Compound 30-A, Fumarate of 2-(4-fluoro-1-(5-((3-(5-(4-methyl-6-((5-methyl-1H-pyrazol-3-yl)amino)pyrimidin-2-yl)pyridin-2-yl)-3,6-diazabicyclo [3.1.1]heptan-6-yl)methyl)pyridin-2-yl)-1H-pyrazol-3-yl) propan-2-ol]
- Inhibition rate on RET-G810S (%) (RET-G810S enzyme): 99.01 ± 0.15%
- IC50 (RET-G810C enzyme): 125 nM

SMILES: Cc1cc(Nc2cc(C)[nH]n2)nc(-c2ccc(N3CC4CC(C3)N4Cc3ccc(-n4ccc(F)n4)cc3)nc2)n1 [Compound 17]
- Inhibition rate on RET-G810S (%) (RET-G810S enzyme): 90.64 ± 0.68%

SMILES: Cc1cc(Nc2cc(C)[nH]n2)nc(-c2ccc(N3CC4CC(C3)N4Cc3ccc(-n4nc(F)cc4C)nc3)nc2)n1 [Compound 28, 2-(6-(6-((6-(3-fluoro-5-methyl-1H-pyrazol-1-yl)pyridin-3-yl)methyl)-3,6-diazabicyclo [3.1.1]heptan-3-yl)pyridin-3-yl)-6-methyl-N-(5-methyl-1H-pyrazol-3-yl) pyrimidin-4-amine]
- inhibition at 0.3 µM (RET-G810S enzyme): 90.8 ± 1.24%

SMILES: Cc1cc(Nc2cc(C)[nH]n2)nc(-c2ccc(N3CC4CC(C3)N4Cc3ccc(-c4ccco4)nc3)nc2)n1 [Compound 29, 2-(6-(6-((6-(furan-2-yl)pyridin-3-yl)methyl)-3,6-diazabicyclo [3.1.1]heptan-3-yl)pyridin-3-yl)-6-methyl-N-(5-methyl-1H-pyrazol-3-yl) pyrimidin-4-amine]
- inhibition at 0.3 µM (RET-G810S enzyme): 93.21 ± 0.91%

SMILES: Cc1cc(Nc2cc(C)[nH]n2)nc(-c2ccc(N3CC4CC(C3)N4Cc3ccc(-n4cccn4)cc3)nc2)n1 [Compound 6]
- Inhibition rate on RET-G810R (%) (RET-G810R enzyme; compound concentration 300 nM): 77.16 ± 3.87%
- Inhibition rate on RET-G810S (%) (RET-G810S enzyme): 83.01 ± 1.42%

SMILES: Cc1cc(Nc2cc(C)[nH]n2)nc(-c2ccc(N3CC4CC(C3)N4Cc3ccc(-n4ncc(F)c4C4CC4)nc3)nc2)n1 [Compound 22]
- Inhibition rate on RET-G810C (%) (RET-G810C enzyme; compound concentration 300 nM): 84.26 ± 6.82%

SMILES: Cc1ccc(CN2C3CC2CN(c2ccc(-c4nc(C)cc(Nc5cc(C)[nH]n5)n4)cn2)C3)cc1 [Compound 2]
- Inhibition rate on RET-G810R (%) (RET-G810R enzyme; compound concentration 300 nM): 70.41 ± 4.57%

SMILES: Cc1cc(Nc2cc(C)[nH]n2)nc(-c2ccc(N3CC4CC(C3)N4Cc3ccc(-c4ccc(C)o4)nc3)nc2)n1 [Compound 16]
- Inhibition rate on RET-G810S (%) (RET-G810S enzyme): 85.27 ± 0.37%

SMILES: Cc1cc(Nc2cc(C)[nH]n2)nc(-c2ccc(N3CC4CC(C3)N4Cc3ccc(-c4ccn[nH]4)nc3)nc2)n1 [Compound 25]
- Inhibition rate on RET-G810S (%) (RET-G810S enzyme): 97.26 ± 0.72%

SMILES: Cc1cc(Nc2cc(C)[nH]n2)nc(-c2ccc(N3CC4CC(C3)N4Cc3ccc(-n4ccc(C5CC5)n4)cc3)nc2)n1 [Compound 15, 2-(6-(6-(4-(3-cyclopropyl-1H-pyrazol-1-yl)benzyl)-3,6-diazabicyclo [3.1.1]heptan-3-yl)pyridin-3-yl)-6-methyl-N-(5-methyl-1H-pyrazol-3-yl) pyrimidin-4-amine]
- inhibition at 0.3 µM (RET-G810S enzyme): 97.22 ± 0.39%

SMILES: Cc1cc(Nc2cc(C)[nH]n2)nc(-c2ccc(N3CC4CC(C3)N4Cc3ccc(-n4cc(F)cn4)nc3)nc2)n1 [Compound 18]
- IC50 (RET-G810R enzyme): 132 nM
- IC50 (RET-G810S enzyme): 15.9 nM
- IC50 (RET-G810C enzyme): 36.3 nM

SMILES: Cc1cc(Nc2cc(C)[nH]n2)nc(-c2ccc(N3CC4CC(C3)N4Cc3ccc(-n4nccc4OC4CC4)nc3)nc2)n1 [Compound 19]
- Inhibition rate on RET-G810S (%) (RET-G810S enzyme): 80.98 ± 7.32%
- Inhibition rate on RET-G810C (%) (RET-G810C enzyme; compound concentration 300 nM): 82.80 ± 3.66%
